According to a melting point compilation (Tetko et al.; mined from patent text by program, amines drawn as free bases though some values may be those of a salt):

First: O=C1C(=O)c2ccc(Cl)cc2C2=C1SCC1(CCN(C(=O)c3cccc(Cl)c3)CC1)O2
Second: COC(=O)c1cc(N2CCCC2)c(Oc2ccccc2)c(S(=O)(=O)Cl)c1
The melting point of the first is higher: 125 to 130 °C for the first, 108 to 112 °C for the second.

First: CCCCCCc1ccc(NC2=NCCS2)cc1
Second: CCCCC[C@H]1CO[C@H](c2ccc(C(=O)O)cc2)OC1
The melting point of the first is lower: 77 to 79 °C for the first, 210 to 211 °C for the second.

Compared with COC(=O)c1ccc(NC(=O)[C@H](Cc2ccc(-c3ccccc3)cc2)NCP(=O)(OC)OC)cc1, O=C(O)COc1ccc(NC(=O)OCc2ccccc2)cc1 is higher in melting point: 128 to 129 °C for the first, 152 to 154 °C for the second.

Going from Cc1cc(Cl)cc(C(=O)Nc2ccn(C)n2)n1 to N#Cc1cc(F)c(-n2nc3ccc(Cl)cn3c2=O)cc1O, the melting point rises from 204 °C to > 260 °C.

First: COc1ccc(C=O)c(Br)c1
Second: COc1ccc2c(c1)[nH]c(=O)c(=O)n2C
The melting point of the first is lower: 73 to 74 °C for the first, 332 °C for the second.

Compared with COP(=O)(OC)C(CCc1cc(C)nc2c(C#N)c(C)nn12)P(=O)(OC)OC, COc1cc(CSCCC(=O)SCc2cc(OC)c(OC)c(OC)c2)cc(OC)c1OC is lower in melting point: 100 to 101 °C for the first, 88 to 89 °C for the second.

First: CC(C)(C)OC(=O)NC[C@H]1CC[C@H](CCO)CC1
Second: CC(C)(C)OC(=O)NCCCCNC(=O)COc1ccc(Cl)cc1Cl
The melting point of the first is lower: 78 to 80 °C for the first, 107 °C for the second.

First: CCOC(=O)c1cn(C(C)c2c(F)cccc2F)nn1 (stereo not drawn)
Second: CCOC(=O)c1ncc2[nH]c3ccc(I)cc3c2n1
The melting point of the first is lower: 118 to 121 °C for the first, 264 to 266 °C for the second.

First: O=C(O)COc1ccc(SCc2ccc(OCc3ccc(F)cc3F)cc2)c2c1CCC2
Second: Cc1nc2cnccc2n1-c1ccc(OCc2cccc(C(=O)O)c2)cc1
The melting point of the first is lower: 158 to 160 °C for the first, 255 to 258 °C for the second.

Compared with N#Cc1ccc(N2CCN(Cc3cnc4c(c3)NC(=O)[C@@H]3CCCN43)CC2)nc1, CCOCCOc1ccc(C(=O)Nc2ccc3cc(CN4CCCC4)cnc3c2C)c(F)c1 is lower in melting point: 252 to 256 °C for the first, 132 °C for the second.

First: CC(=O)C1(C(=O)N[C@H](C)c2ccccc2)CCC1
Second: O=C(O)C12CCCCC1CSc1ccccc12 (stereo not drawn)
The melting point of the first is lower: 57 to 60 °C for the first, 200 to 203 °C for the second.

First: CCOC(=O)c1cnc2sc(C)cc2c1O
Second: CCC(=O)c1c[nH]c2c(OC)cccc2c1=O
The melting point of the first is lower: 118 to 120 °C for the first, 260 to 263 °C for the second.

Compared with Nc1ccc(C(=O)Cn2c(-c3nonc3NCCC(=O)O)nc3ccccc32)cc1, CCOC(=O)c1c(C)nc(-c2ccccc2)nc1-c1cc([N+](=O)[O-])ccc1S(C)(=O)=O is lower in melting point: 174 to 177 °C for the first, 150 to 151 °C for the second.

First: O=C(CNS(=O)(=O)c1ccc2ccccc2c1)NCC(NC(=O)C1CCN(c2ccncc2)CC1)C(=O)N1CCCCC1 (stereo not drawn)
Second: CC(C)c1ccc(NC(=O)OC(C)(C)C)c(C(=O)NCC2CCN(C(c3ccccc3)c3ccccc3)CC2)c1
The melting point of the first is higher: 200 to 202 °C for the first, 88 to 90 °C for the second.

First: CC(=O)NCc1cn(-c2ccc(-n3cccc3)c(F)c2)nn1
Second: Cc1nnc2n1-c1ccc(NC(=O)NCCO)cc1C(c1ccccc1F)=NC2
The melting point of the first is lower: 210 to 215 °C for the first, 228 to 230 °C for the second.

First: COC(=O)c1ccc2c(c1)C(c1ccccn1)CC(C)(C)O2 (stereo not drawn)
Second: O=Cc1ccc2c(c1)Cc1cccnc1O2
The melting point of the first is lower: 113 to 115 °C for the first, 171 to 173 °C for the second.

First: O=C1CC(c2ccccc2)Cc2occ(C(F)(F)F)c21 (stereo not drawn)
Second: CN(C)C(=O)Nc1coc2ccccc2c1=O
The melting point of the first is lower: 107 to 108 °C for the first, 148 °C for the second.

First: CN(C)Cc1ccc(CSCCNC2=NS(=O)N=C2N)o1 (stereo not drawn)
Second: CN(C)CCn1c(=O)[nH]c2ccccc21
The melting point of the first is higher: 139 to 142 °C for the first, 106 to 108 °C for the second.

First: CNCC1Cc2cc(F)cc(-c3cc(Cl)ccc3Cl)c2O1 (stereo not drawn)
Second: CCNCC1Cc2cc(F)cc(-c3c(Cl)cccc3Cl)c2O1 (stereo not drawn)
The melting point of the first is lower: 118 to 120 °C for the first, 138 °C for the second.

First: CC(C)(C)OC(=O)C(N)c1nc(-c2ncn3c2C2CCN2C(=O)c2cc(F)ccc2-3)no1 (stereo not drawn)
Second: Cc1noc(-c2ccc([C@H]3CN(C(=O)OC(C)(C)C)CCO3)cc2)n1
The melting point of the first is higher: 147 to 150 °C for the first, 116 °C for the second.

CCCCCCOc1ccc(C(=O)Nc2ccccc2Sc2ccccc2-c2nnn[nH]2)cc1 and CCCCCCOc1ccc(C(=O)Nc2ccc(-n3nc(C(F)(F)F)cc3C(F)(F)F)cc2)cc1 cannot be ordered by melting point: 154 to 156 °C for the first, 153 to 155 °C for the second.

First: CCCN(CCC)C(=O)CCC(=O)O
Second: CCCCC(=O)NC(C#N)C(=O)OCC (stereo not drawn)
The melting point of the first is lower: 35 to 37 °C for the first, 88 °C for the second.

Compared with COC(=O)CS(=O)(=O)c1ccc(N2CCN(c3ccc(C#N)cc3)C2=O)cc1, Cc1cc(C)cc(S(=O)(=O)c2cccc(N)c2C#N)c1 is lower in melting point: 246 to 249 °C for the first, 208 to 209 °C for the second.

COc1cc(N=C(N)c2cccs2)ccc1N1CCN(C(=O)NCCCCC2CCSS2)CC1 (stereo not drawn) and CCCCOC(=O)NCc1nc(-c2ccc3c(c2)Nc2ccccc2S3)cs1 cannot be ordered by melting point: 186 °C for the first, 186 to 188 °C for the second.

First: CN1CCC(OC2c3ccccc3CCn3c2nc(-c2ccc(Br)cc2)c3Cl)CC1 (stereo not drawn)
Second: Cc1ccc(COc2cccc(/C=C/c3ccc(CN4CCCCC4)cc3)c2)cc1
The melting point of the first is higher: 169 °C for the first, 87 to 88 °C for the second.

First: Cc1cc(CCCCCOc2ccc(-c3cnco3)cc2)on1
Second: Cc1oc(-c2cc3ccccc3o2)nc1COc1ccc(CCCC2OC(=O)NC2=O)cc1 (stereo not drawn)
The melting point of the first is lower: 91 to 93 °C for the first, 165 to 166 °C for the second.

First: O=C(O)c1nc(CCCc2ccccc2)c[nH]1
Second: Clc1ccc(OCc2ccccc2)c(OCc2ccccc2)c1Cl
The melting point of the first is higher: 148 to 150 °C for the first, 74 to 75.5 °C for the second.

First: CC1CC(=O)N(c2ccc(F)cc2)C(=S)C1 (stereo not drawn)
Second: CC(=Cc1ccc(F)cc1)c1ccc2c(c1)C(C)(C)CCC2(C)C
The melting point of the first is lower: 84.5 to 87.5 °C for the first, 99 to 101 °C for the second.

First: O=C(C=Cc1ccc(C(F)(F)F)cc1)N1CCCCC1CO (stereo not drawn)
Second: CC(=O)Nc1cc(C(=O)O)cc(C(F)(F)F)c1
The melting point of the first is lower: 139 to 140 °C for the first, 194 to 220 °C for the second.

First: COc1cc2ncnc(Nc3nccc4ccccc34)c2cc1OC
Second: CN(C(=N)Nc1cccc2ccccc12)c1cccc2ccccc12
The melting point of the first is lower: 198 to 199 °C for the first, 249 to 250 °C for the second.

First: O=C(O)C1Cc2c(cccc2-c2ccccc2)CN1C(=O)C(c1ccccc1)c1ccccc1 (stereo not drawn)
Second: C[C@@H](N(CCNC(=O)OC(C)(C)C)C(=O)c1ccc(C(F)(F)F)cc1)[C@](O)(Cn1cncn1)c1ccc(F)cc1F (relative stereo)
The melting point of the first is higher: 216 to 221 °C for the first, 135 to 143 °C for the second.

First: O=[N+]([O-])c1cnccc1Oc1ccc2[nH]ccc2c1
Second: Cc1c(-c2cc([N+](=O)[O-])c(F)cc2F)ncnc1C(F)F
The melting point of the first is higher: 182 to 184 °C for the first, 85 to 86 °C for the second.

First: COC(C)c1nsc2ccc(-n3c(=O)cc(C(F)(F)F)n(C)c3=O)cc12 (stereo not drawn)
Second: Cc1nc(-c2cc(Cl)ccc2Cl)n2c1nnc1ccc(F)cc12
The melting point of the first is lower: 133 to 135 °C for the first, 165 to 168 °C for the second.

Compared with CC(=O)OC1CCC2(C)C(=CCC3C2CC(c2cccnc2)C2(C)C=CCC32)C1 (stereo not drawn), NC(=O)c1ccc(C2CCCCCC2)c(Cl)c1 is higher in melting point: 144 to 145 °C for the first, 152 to 155 °C for the second.

First: Cc1c(C(C)(C)C)cc(C(C)C)c(O)c1CO
Second: Cc1cc(C)c2c(c1O)C(NCc1cc(C(C)(C)C)c(O)c(C(C)(C)C)c1)CC2 (stereo not drawn)
The melting point of the first is lower: 143 to 146 °C for the first, 154 to 155 °C for the second.

First: CCCC1=C(C#N)C(c2cccc3oc(C)nc23)c2c[nH]nc2N1 (stereo not drawn)
Second: Cc1nc(Cl)c2cc(C)oc2n1
The melting point of the first is higher: 208 °C for the first, 47.6 to 48.1 °C for the second.

For OCC(O)CNc1nnc(-c2ccc(F)c(F)c2Nc2ccc(I)cc2F)o1 (stereo not drawn), the melting point was 157 to 159 °C.
